Results published in patent US20240400986A1, “MEMBRANE BOUND COMPOSITIONS AND METHODS RELATING TO SAME” (FLAGSHIP PIONEERING INNOVATIONS VII, LLC, priority 2021, published 2024).
Like-named read-outs stand apart in the source and are kept apart here.

Tests used:
[1] = tested on: cardiomyocytic cell line derived from human ventricular heart tissue; test: Cell viability in cardiomyocyte compound screen (CellTiter-Glo); assay type: cell-based
[2] = tested on: cardiomyocytic cell line derived from human ventricular heart tissue; test: Small molecule compound screen of gigasome production in cardiomyocytic monocultures;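 on all read-outs here: gigasomes shed into the culture medium were imaged by confocal microscopy and counted as round particles lacking nuclear signal, extrapolated to the whole well, fold change is relative to DMSO vehicle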; conditions: for Number of Gigasomes Produced / downregulation of gigasome production / Fold Change of Gigasomes Produced vs. DMSO: cardiomyocytes; for downregulation of gigasome production: doses 10-10,000 nM
Method: For the screening, a total of 100 randomly organized compounds (TargetMol) were divided in 5 groups. Each group included an untreated condition, a vehicular DMSO control, and a known high-gigasome producing condition to comparatively study gigasome production rates. As a cell death control group, 500 nM Staurosporine was added to induce apoptosis. Cultures were incubated for 24 hours under gigasome inducing conditions at concentrations ranging between 10 nM and 10,000 nM. […] The Zeiss ZEN Blue software was used to distribute imaging fields of view (positions) to create an unbiased imaging sample of a well. 5 images were taken using a Zeiss LSM 900 confocal microscope. […] The BioApps ZEN software package was used to perform cell nucleus segmentation and counting. After 24 hours, gigasomes were harvested from the cell culture media by gently removing from the top of each 96-well ⅔ of the total volume without disturbing the cell layer (containing the settled gigasomes) and by adding to each well the same amount of PBS containing 0.5 mM EDTA. The wells were washed twice gently, and the gigasome-containing media/0.5 mM EDTA PBS wash was transferred into the well of a 384-well glass bottom plate. Cells remaining in the 96-well plates were assessed for viability using CellTiter-Glo (Promega).
For gigasome analysis in 384-well plates, the Zeiss ZEN Blue software was used to distribute positions to create an unbiased imaging sample of a well. 6 images per well were taken using a Zeiss LSM 900 confocal microscope. […] A watershed binary segmentation step was performed to separate grouped objects. For each particle in the mask, characteristic parameters of the particle were calculated and saved. […] Particles of interest were identified by thresholding by area and circularity. […] Circularity, defined by the formula 4pi(area/perimeter^2, was set to be between 0.8, where a value of 1.0 is a perfect circle, and a value of 0 is a line. Gigasomes were identified from the particles of interest by thresholding by mean nuclear signal. The nuclear signal threshold was set using a value equal to one quarter of a threshold value calculated by the Li auto-threshold algorithm applied to the distribution of all particles of interest. Particles of interest with nuclear signal below this value were considered “negative” for nuclear material and were identified as gigasomes. A sampling factor was calculated to extrapolate the total quantity of a type of object (particles, particles of interest, gigasomes) in the well. The sampling factor was the percentage of the well's area that was imaged. […] In some experiments, the number of cells in the cell cultures were estimated with a cell counter. […] The normalized quantity or distribution of objects was described as a quantity or distribution of objects per 1000 cells.

[3] = tested on: neuronal cell line derived from human neuroblastoma
[4] = tested on: neuronal cell line derived from human neuroblastoma; test: Small molecule compound screen of gigasome production in neuronal monocultures; conditions: for fold induction at 0.01 µM / fold induction at 0.1 µM / fold induction at 1 µM / fold induction at 10 µM: Homo sapiens, 24 h, read-out: Fold Change of Gigasomes Produced vs. DMSO; for Number of Gigasomes Produced / Fold Change of Gigasomes Produced vs. DMSO: neuronal cells, 24 hours
[5] = Table 23 (down-regulators), dose 10 nM, cardiomyocytes
[6] = Table 23 (down-regulators), dose 100 nM, cardiomyocytes
[7] = Table 23 (down-regulators), dose 1000 nM, cardiomyocytes
[8] = Table 23 (down-regulators), dose 10000 nM, cardiomyocytes
[9] = Homo sapiens, Cardiomyocyte, 24 h, read-out: Fold Change of Gigasomes Produced vs. DMSO
[10] = Table 23 (down-regulators), dose 10 nM
[11] = Table 23 (down-regulators), dose 100 nM
[12] = Table 23 (down-regulators), dose 1000 nM
[13] = Table 23 (down-regulators), dose 10000 nM
[14] = Table 22, dose 10 nM, cardiomyocytes, 24 hours
[15] = Table 22, dose 10000 nM, 24 hours
[16] = Table 22, dose 1000 nM, 24 hours
[17] = Table 22, dose 100 nM, 24 hours
[18] = neuronal cells, dose 10 nM, 24 hours
[19] = neuronal cells, dose 100 nM, 24 hours
[20] = neuronal cells, dose 1000 nM, 24 hours
[21] = neuronal cells, dose 10000 nM, 24 hours

SMILES: O=C(O)CC[N+](=O)[O-] [3-Nitropropanoic acid, reference compound]
- Viability [1, 5]: >75%
- Viability [1, 6]: 100.0%
- Viability [1, 7]: >75%
- Viability [1, 8]: 100.0%
- fold induction at 0.01 µM [2, 9]: 0.75 to 1
- fold induction at 0.1 µM [2, 9]: 0.75 to 1
- fold induction at 1 µM [2, 9]: 0.25 to 0.5
- fold induction at 10 µM [2, 9]: 0.25 to 0.5
- Number of Gigasomes Produced [2, 10]: 105-120
- Number of Gigasomes Produced [2, 11]: 90-105
- Number of Gigasomes Produced [2, 12]: 50-75
- Number of Gigasomes Produced [2, 13]: 35-50
- downregulation of gigasome production ([2]; 24 h): dose-dependent downregulation

SMILES: CC(N)=NCc1cccc(CN)c1.Cl.Cl [1400W dihydrochloride]
- Viability [1, 14]: 100%
- Viability [1, 5]: 100.0%
- Viability [1, 6]: 100.0%
- Viability [1, 7]: 100.0%
- Viability [1, 8]: 100.0%
- Number of Gigasomes Produced ([2]; Table 22, dose 10 nM, 24 hours): 150-175
- Number of Gigasomes Produced [2, 10]: >150
- Number of Gigasomes Produced [2, 11]: 90-105
- Number of Gigasomes Produced [2, 12]: 90-105
- Number of Gigasomes Produced [2, 13]: 50-75

SMILES: COc1cc(C(C)=O)ccc1O [Apocynin]
- Viability ([1]; human, 24 h, 10 nM): >75%
- Viability ([1]; human, 24 h, 10000 nM): >75%
- fold induction at 0.01 µM [2, 9]: 1 to 1.25
- fold induction at 10 µM [2, 9]: 1 to 1.25
- Number of Gigasomes Produced ([2]; Table 22, dose 10 nM, 24 hours): 150-175
- Number of Gigasomes Produced [2, 15]: 150-175

SMILES: NC(=O)N1c2ccccc2C=Cc2ccccc21 [Carbamazepine]
- Viability ([1]; human, 24 h, 10 nM): >75%
- Viability ([1]; human, 24 h, 1000 nM): >75%
- Viability ([1]; human, 24 h, 10000 nM): >75%
- fold induction at 0.01 µM [2, 9]: 1 to 1.25
- fold induction at 1 µM [2, 9]: 1.25 to 1.5
- fold induction at 10 µM [2, 9]: 1.25 to 1.5
- Number of Gigasomes Produced ([2]; Table 22, dose 10 nM, 24 hours): 200-225
- Number of Gigasomes Produced [2, 16]: 250-275
- Number of Gigasomes Produced [2, 15]: 250-275

SMILES: Nc1ncn([C@@H]2O[C@H](CO)[C@@H](O)[C@H]2O)c(=O)n1 [Compound 5-Azacytidine, 5-Azacytidine]
- Viability ([1]; human, 24 h, 1000 nM): 50-75%
- fold induction at 1 µM [2, 9]: 1 to 1.25
- Number of Gigasomes Produced [2, 16]: 150-175

SMILES: O=C(Nc1ccncc1)c1cc([N+](=O)[O-])ccc1Cl [Compound T0070907]
- Viability [1, 14]: 100%
- Viability ([1]; Table 22, dose 100 nM, cardiomyocytes, 24 hours): 100%
- Fold Change of Gigasomes Produced vs. DMSO ([2]; Table 22, dose 10 nM, 24 hours): 1.0-1.25
- Number of Gigasomes Produced ([2]; Table 22, dose 10 nM, 24 hours): 150-175
- Fold Change of Gigasomes Produced vs. DMSO [2, 17]: 1.0-1.25
- Number of Gigasomes Produced [2, 17]: 150-175

SMILES: O=S(=O)(c1ccccc1)N(CC(F)(F)F)c1ccc(C(O)(C(F)(F)F)C(F)(F)F)cc1 [Compound T0901317]
- Viability ([1]; human, 24 h, 10000 nM): >75%
- fold induction at 10 µM [2, 9]: 1 to 1.25
- Number of Gigasomes Produced [2, 15]: 150-175

SMILES: Cn1c(=O)n(-c2ccc(C(C)(C)C#N)cc2)c2c3cc(-c4cnc5ccccc5c4)ccc3ncc21 [Dactolisib]
- Viability ([1]; human, 24 h, 10000 nM): >75%
- fold induction at 10 µM [2, 9]: 1.25 to 1.5
- Number of Gigasomes Produced [2, 15]: 150-175

SMILES: CC(=O)c1cc2c(o1)C(=O)c1ccccc1C2=O [Napabucasin]
- Viability [3, 18]: 100%
- Viability [3, 19]: 100%
- fold induction at 0.01 µM [4]: 1 to 1.25
- fold induction at 0.1 µM [4]: 1.5 to 1.75
- Number of Gigasomes Produced ([4]; dose 10 nM): 35-45
- Number of Gigasomes Produced ([4]; dose 100 nM): 45-55

SMILES: O=C(Nc1ccc(O)c(C(=O)O)c1)c1cccc(NC(=O)c2ccco2)c1 [OSS128167]
- Viability [3, 18]: 100%
- Viability [3, 19]: >75%
- Viability [3, 20]: 100%
- Fold Change of Gigasomes Produced vs. DMSO ([4]; dose 10 nM): 1.0-1.25
- Number of Gigasomes Produced ([4]; dose 10 nM): >40
- Fold Change of Gigasomes Produced vs. DMSO ([4]; dose 100 nM): 0.75-1.0
- Number of Gigasomes Produced ([4]; dose 100 nM): 25-30
- Fold Change of Gigasomes Produced vs. DMSO ([4]; dose 1000 nM): 0.75-1.0
- Number of Gigasomes Produced ([4]; dose 1000 nM): 25-30

SMILES: O=C(Nc1ccc(O)c(C(=O)O)c1)c1cccc(NC(=O)c2ccco2)c1 [OSS_128167]
- Viability [3, 21]: 100%
- Fold Change of Gigasomes Produced vs. DMSO ([4]; dose 10000 nM): 0.5-0.75
- Number of Gigasomes Produced ([4]; dose 10000 nM): 20-25

SMILES: C/C=C1/[C@H](O[C@@H]2O[C@H](CO)[C@@H](O)[C@H](O)[C@H]2O)OC=C(C(=O)OC)[C@H]1CC(=O)OCCc1ccc(O)c(O)c1 [Oleuropein, reference compound]
- Viability ([3]; human, 24 h, 10 nM): 100%
- Viability ([3]; human, 24 h, 100 nM): 100%
- Viability ([3]; human, 24 h, 1000 nM): >75%
- Viability ([3]; human, 24 h, 10000 nM): 100%
- fold induction at 0.01 µM [4]: 1 to 1.25
- fold induction at 0.1 µM [4]: 0.75 to 1
- fold induction at 1 µM [4]: 0.75 to 1
- fold induction at 10 µM [4]: 0.5 to 0.75
- Number of Gigasomes Produced ([4]; dose 10 nM): >40
- Number of Gigasomes Produced ([4]; dose 100 nM): 30-35
- Number of Gigasomes Produced ([4]; dose 1000 nM): 30-35
- Number of Gigasomes Produced ([4]; dose 10000 nM): 25-30

SMILES: COC(=O)c1ccc([C@@H]2c3[nH]c4ccccc4c3C[C@@H](C(=O)OC)N2C(=O)CCl)cc1 [RSL3, reference compound]
- Viability [3, 20]: >75%
- Fold Change of Gigasomes Produced vs. DMSO ([4]; dose 1000 nM): 2.0-3.0
- Number of Gigasomes Produced ([4]; dose 1000 nM): 55-65

SMILES: CC[C@H](CO)Nc1nc(NCc2ccccc2)c2ncn(C(C)C)c2n1 [Seliciclib]
- Viability [3, 18]: 100%
- Viability [3, 19]: 100%
- Viability [3, 20]: 100%
- Viability [3, 21]: 100%
- fold induction at 0.01 µM [4]: 0.75 to 1
- fold induction at 0.1 µM [4]: 0.75 to 1
- fold induction at 1 µM [4]: 0.75 to 1
- fold induction at 10 µM [4]: 0.5 to 0.75
- Number of Gigasomes Produced ([4]; dose 10 nM): 25-30
- Number of Gigasomes Produced ([4]; dose 100 nM): 25-30
- Number of Gigasomes Produced ([4]; dose 1000 nM): 25-30
- Number of Gigasomes Produced ([4]; dose 10000 nM): 15-20

SMILES: CC(C)[C@H](O)C(=O)N[C@@H](C)C(=O)N[C@@H]1C(=O)N(C)CCc2ccccc21 [Semagacestat]
- Viability [3, 18]: 100%
- Viability [3, 19]: 100%
- Viability [3, 20]: 100%
- Viability [3, 21]: 100%
- fold induction at 0.01 µM [4]: 0.75 to 1
- fold induction at 0.1 µM [4]: 0.75 to 1
- fold induction at 1 µM [4]: 0.5 to 0.75
- fold induction at 10 µM [4]: 0.5 to 0.75
- Number of Gigasomes Produced ([4]; dose 10 nM): >40
- Number of Gigasomes Produced ([4]; dose 100 nM): 35-40
- Number of Gigasomes Produced ([4]; dose 1000 nM): 20-25
- Number of Gigasomes Produced ([4]; dose 10000 nM): 20-25

SMILES: CC(=O)Nc1cccc(-n2c(=O)n(C3CC3)c(=O)c3c(Nc4ccc(I)cc4F)n(C)c(=O)c(C)c32)c1 [Trametinib, reference compound]
- Viability ([3]; human, 24 h, 10 nM): >75%
- Viability ([3]; human, 24 h, 100 nM): >75%
- Viability ([3]; human, 24 h, 1000 nM): >75%
- fold induction at 0.01 µM [4]: 1.25 to 1.5
- fold induction at 0.1 µM [4]: 1.25 to 1.5
- fold induction at 1 µM [4]: 2 to 3
- Number of Gigasomes Produced ([4]; dose 10 nM): 35-45
- Number of Gigasomes Produced ([4]; dose 100 nM): 35-45
- Number of Gigasomes Produced ([4]; dose 1000 nM): 65-75

SMILES: CC(/C=C/C(=O)NO)=C\[C@@H](C)C(=O)c1ccc(N(C)C)cc1 [Trichostatin A]
- Viability [3, 20]: 50-75%
- Fold Change of Gigasomes Produced vs. DMSO ([4]; dose 1000 nM): 1.75-2.0
- Number of Gigasomes Produced ([4]; dose 1000 nM): 55-65

SMILES: N#C/C(=C\c1cn(-c2ccccc2)c2ccccc12)C(=O)O [UK-5099, reference compound]
- Viability [3, 18]: 100%
- Viability [3, 19]: 100%
- Viability [3, 20]: 100%
- Viability [3, 21]: 100%
- Fold Change of Gigasomes Produced vs. DMSO ([4]; dose 10 nM): 0.5-0.75
- Number of Gigasomes Produced ([4]; dose 10 nM): 20-25
- Fold Change of Gigasomes Produced vs. DMSO ([4]; dose 100 nM): 0.5-0.75
- Number of Gigasomes Produced ([4]; dose 100 nM): 15-20
- Fold Change of Gigasomes Produced vs. DMSO ([4]; dose 1000 nM): 0.5-0.75
- Number of Gigasomes Produced ([4]; dose 1000 nM): 15-20
- Fold Change of Gigasomes Produced vs. DMSO ([4]; dose 10000 nM): 0.25-0.5
- Number of Gigasomes Produced ([4]; dose 10000 nM): 10-15
- downregulation of gigasome production ([2]; 24 h): dose-dependent downregulation

SMILES: CN1C(=N)N[C@](C)(c2cc(NC(=O)c3ccc(F)cn3)ccc2F)CS1(=O)=O [Verubecestat]
- Viability [3, 18]: 100%
- Viability [3, 19]: 100%
- Viability [3, 20]: 100%
- Viability [3, 21]: 100%
- fold induction at 0.01 µM [4]: 0.75 to 1
- fold induction at 0.1 µM [4]: 0.5 to 0.75
- fold induction at 1 µM [4]: 0.5 to 0.75
- fold induction at 10 µM [4]: 0.5 to 0.75
- Number of Gigasomes Produced ([4]; dose 10 nM): 35-40
- Number of Gigasomes Produced ([4]; dose 100 nM): 25-30
- Number of Gigasomes Produced ([4]; dose 1000 nM): 20-25
- Number of Gigasomes Produced ([4]; dose 10000 nM): 20-25
